Measurements published in the supplement of paper PMC10307832.

Tests used:
Test in all cases: relative viability (nuclei count vs DMSO), 5 days (fraction); higher = more cells survive
A-427 = tested on: A-427
How it was run: (§1)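 Cells from lung cancer lines were seeded into 1536-well plates and, one day later, dosed by pin tool. Treatments were either a single drug or a fixed dose of an anchor drug with five library-drug doses (not always all listed) in √10 steps. After 5 days, nuclei were stained in a one-step fixation (final 0.05% Triton X-100, 1% formaldehyde, 1 ug/ml Hoechst) and counted on 4× images, and relative viability is the treated-to-vehicle nuclei ratio, as the median of duplicate plates.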

ABC-1 = tested on: ABC-1
How it was run: as §1

BEN = tested on: BEN
How it was run: as §1

CAL-12T = tested on: CAL-12T
How it was run: as §1

HARA = tested on: HARA
How it was run: as §1

LCLC-103H = tested on: LCLC-103H
How it was run: as §1

LOU-NH91 = tested on: LOU-NH91
How it was run: as §1

NCI-H1651 = tested on: NCI-H1651
How it was run: as §1

NCI-H1666 = tested on: NCI-H1666
How it was run: as §1

NCI-H1734 = tested on: NCI-H1734
How it was run: as §1

NCI-H1944 = tested on: NCI-H1944
How it was run: as §1

NCI-H1975 = tested on: NCI-H1975
How it was run: as §1

Cc1cn(-c2cc(NC(=O)c3ccc(C)c(Nc4nccc(-c5cccnc5)n4)c3)cc(C(F)(F)F)c2)cn1 [Nilotinib] + COc1cccc2cc(-c3nc([C@H]4CC[C@H](C(=O)O)CC4)n4ncnc(N)c34)[nH]c12 [OSI-027] (partner 0.5 µM)
relative viability (A-427; first compound 0.001 µM): 0.369 | relative viability (A-427; first compound 0.003162 µM): 0.456 | relative viability (A-427; first compound 0.01 µM): 0.44 | relative viability (A-427; first compound 0.03162 µM): 0.297 | relative viability (A-427; first compound 0.1 µM): 0.154 | relative viability (ABC-1; first compound 0.001 µM): 0.447 | relative viability (ABC-1; first compound 0.003162 µM): 0.479 | relative viability (ABC-1; first compound 0.01 µM): 0.45 | relative viability (ABC-1; first compound 0.03162 µM): 0.376 | relative viability (ABC-1; first compound 0.1 µM): 0.237 | relative viability (BEN; first compound 0.001 µM): 0.295 | relative viability (BEN; first compound 0.003162 µM): 0.285 | relative viability (BEN; first compound 0.01 µM): 0.348 | relative viability (BEN; first compound 0.03162 µM): 0.283 | relative viability (BEN; first compound 0.1 µM): 0.277 | relative viability (CAL-12T; first compound 0.001 µM): 0.612 | relative viability (CAL-12T; first compound 0.003162 µM): 0.413 | relative viability (CAL-12T; first compound 0.01 µM): 0.426 | relative viability (CAL-12T; first compound 0.03162 µM): 0.427 | relative viability (CAL-12T; first compound 0.1 µM): 0.527 | relative viability (HARA; first compound 0.001 µM): 0.523 | relative viability (HARA; first compound 0.003162 µM): 0.633 | relative viability (HARA; first compound 0.01 µM): 0.469 | relative viability (HARA; first compound 0.03162 µM): 0.179 | relative viability (HARA; first compound 0.1 µM): 0.231 | relative viability (LCLC-103H; first compound 0.001 µM): 0.406 | relative viability (LCLC-103H; first compound 0.003162 µM): 0.58 | relative viability (LCLC-103H; first compound 0.01 µM): 0.508 | relative viability (LCLC-103H; first compound 0.03162 µM): 0.432 | relative viability (LCLC-103H; first compound 0.1 µM): 0.407 | relative viability (LOU-NH91; first compound 0.001 µM): 0.687 | relative viability (LOU-NH91; first compound 0.003162 µM): 0.728 | relative viability (LOU-NH91; first compound 0.01 µM): 0.736 | relative viability (LOU-NH91; first compound 0.03162 µM): 0.67 | relative viability (LOU-NH91; first compound 0.1 µM): 0.727 | relative viability (NCI-H1651; first compound 0.001 µM): 0.638 | relative viability (NCI-H1651; first compound 0.003162 µM): 0.727 | relative viability (NCI-H1651; first compound 0.01 µM): 0.842 | relative viability (NCI-H1651; first compound 0.03162 µM): 0.508 | relative viability (NCI-H1651; first compound 0.1 µM): 0.403 | relative viability (NCI-H1666; first compound 0.001 µM): 0.823 | relative viability (NCI-H1666; first compound 0.003162 µM): 0.846 | relative viability (NCI-H1666; first compound 0.01 µM): 0.879 | relative viability (NCI-H1666; first compound 0.03162 µM): 0.753 | relative viability (NCI-H1666; first compound 0.1 µM): 0.899 | relative viability (NCI-H1734; first compound 0.001 µM): 0.57 | relative viability (NCI-H1734; first compound 0.003162 µM): 0.595 | relative viability (NCI-H1734; first compound 0.01 µM): 0.64 | relative viability (NCI-H1734; first compound 0.03162 µM): 0.435 | relative viability (NCI-H1734; first compound 0.1 µM): 0.261 | relative viability (NCI-H1944; first compound 0.001 µM): 0.418 | relative viability (NCI-H1944; first compound 0.003162 µM): 0.407 | relative viability (NCI-H1944; first compound 0.01 µM): 0.367 | relative viability (NCI-H1944; first compound 0.03162 µM): 0.324 | relative viability (NCI-H1975; first compound 0.001 µM): 0.598 | relative viability (NCI-H1975; first compound 0.003162 µM): 0.53
